Experimental data: ChEMBL document CHEMBL6120951, “Viral Protein Dimerization Quality Control: A Design Strategy for a Potential Viral Inhibitor” (J Med Chem, 2024)

Key:
[1] = system: MT4; test: Cytotoxicity against human MT4 cells assessed as reduction in cell viability incubated for 72 hrs by cell-titer glo assay; type: functional
[2] = system: SARS-CoV-2; test: Antiviral activity against SARS-CoV-2 infected in African green monkey Vero cells assessed as reduction in viral replication; type: functional, organism-based; settings: Severe acute respiratory syndrome coronavirus 2, Vero
[3] = Cytotoxicity against African green monkey Vero cells assessed as reduction in cell viability after 72 hrs by MTT assay; type: toxicity, cell-based; settings: chlorocebus sabaeus
[4] = system: Human immunodeficiency virus 1; test: Antiviral activity against HIV-1 3B infected in human MT4 cells assessed as reduction in viral replication; type: functional, organism-based; settings: Human immunodeficiency virus 1, 3B
[5] = system: Jurkat; test: Cytotoxicity against human Jurkat cells assessed as reduction in cell growth incubated for 24 hrs by CellTiter-Glo luminescent cell viability assay; type: functional
[6] = Inhibition of SARS-CoV-2 MPro using Dabcyl-KTSAVLQSGFRKME-Edans as substrate preincubated for 15 mins followed by substrate addition measured after 30 mins by FRET assay; set-up: species or system Severe acute respiratory syndrome coronavirus 2

In the case of `CC(=O)Nc1ccc(-c2cc(C)c(=O)n(Cc3ccc(Cl)cc3)n2)cc1`, the CC50 [1] is reported as > 100000 nM.
`CC1=C(C(C2=C(C)c3ccccc3C2=O)c2ccc(C)cc2)C(=O)CC(c2ccccc2)C1` (configuration not stated) showed an EC50 [2] of 1820 nM.
With `CC(C)OCCCNC(=O)c1csc(Nc2cc(F)c(Cl)c(F)c2)n1` the EC50 [2] was 110 nM and the CC50 at 72 h [3] was > 100000 nM.
Compound `CCOc1cc2ncc(C#N)c(Nc3ccc(F)c(Cl)c3)c2cc1NC(=O)/C=C/CN(C)C` [PELITINIB] has an EC50 [2] of 1250 nM.
Compound `O=C(Nc1cc(F)c(F)c(F)c1)c1ccc(F)c(S(=O)(=O)N2CCC(O)CC2)c1` has a CC50 [1] of 14500 nM.
In the case of `N#Cc1ccc(Nc2nc(-c3cccnc3)nc3ccccc23)cc1`, the EC50 [4] is reported as 4000 nM and the CC50 [5] is reported as > 10000 nM.
For `Cc1[nH]c2ccccc2c1CC(=O)N[C@@H](Cc1ccccc1)C(=O)N(C)c1ccccc1`, the CC50 [5] was > 47000 nM.
For `O=C(Nc1cccc(Cl)c1)C1C2CCCCC21` (configuration not stated), the CC50 [1] was > 100000 nM.
Work on `O=C(NC1CCNCC1)c1n[nH]cc1NC(=O)c1c(Cl)cccc1Cl` [AT-7519] yielded an EC50 [2] of 25000 nM.
In the case of `N#Cc1ccc(C(=O)Nc2sc3c(c2C(=O)Nc2ccccc2O)CCCCC3)cc1`, the EC50 [2] is reported as 380 nM and the CC50 at 72 h [3] is reported as > 250000 nM.
Compound `CC(C)(C#Cc1ccc(-c2ccc(Cl)c3c(NS(C)(=O)=O)nn(CC(F)(F)F)c23)c([C@H](Cc2cc(F)cc(F)c2)NC(=O)Cn2nc(C(F)(F)F)c3c2C(F)(F)[C@@H]2C[C@H]32)n1)S(C)(=O)=O` has an EC50 [4] of 0.105 nM.
Work on `O=C(CNC(=O)c1ccc(F)cc1)Nc1ccc(Cl)nc1Cl` yielded a CC50 [1] of 144000 nM.
Compound `CCN1C(=O)C(c2cc(O)cc(-c3cccnc3)c2)C(=O)N(c2ccccc2)c2cc(C(F)(F)F)ccc21` (configuration not stated) has an EC50 [4] of 480 nM.
In the case of `O=C1NC(c2ccc(O)cc2)C2C(c3ccccc3)=NNC12` (configuration not stated), the EC50 [4] is reported as 1800 nM and the CC50 [5] is reported as > 43000 nM.
With `O=C(O)c1cc(-c2ccc(-c3ccccc3)cc2)nc2ccccc12` the IC50 [6] was 480 nM and the CC50 at 72 h [3] was > 50000 nM.
In the case of `CC(C)Cc1sc(-c2nccs2)nc1C(=O)NCc1ccc(F)cc1`, the CC50 [1] is reported as 50400 nM.
`CCc1cc(-c2ccc(C(F)(F)F)o2)n(-c2ccc3c(c2)nc(-c2ccccc2O)n3Cc2ccc(=O)[nH]c2)n1` gave an EC50 [4] of 110 nM.
